In patent US20040037806A1, “Aldosterone blocker therapy to prevent or treat inflammation-related disorders” (Pharmacia Corporation, priority 2002, published 2004):
Entries after “also recorded” stand apart in the source; their conditions may differ.

How the values were obtained:
[1] = Assay B: interstitial collagen volume fraction and hydroxyproline concentration (myocardial fibrosis); assay type: in vivo, rat; settings: aldosterone/salt-treated uni-nephrectomized Sprague Dawley rats, 4 weeks
Method: Assay B: In Vivo Aldosterone Infusion Model Hearts were stained with hematoxylin&eosin and the collagen specific dye picro-sirius red and were analyzed for determination of interstitial collagen volume fraction and morphologic abnormalities (i.e. necrosis, vascular injury). Hydroxyproline concentration was measured in the frozen hearts.

[2] = Survival and cerebral injury in stroke-prone spontaneously hypertensive rats; assay type: in vivo, rat

**Q.** Which “Myocardial fibrosis (interstitial collagen volume fraction, hydroxyproline concentration)” value [1] does the source give for `C[C@]12CCC(=O)C=C1CC[C@@H]1[C@@H]2[C@@H](O)C[C@]2(C=O)[C@@H](C(=O)CO)CC[C@@H]12` [aldosterone] here?
**A.** The value was “absence of myocardial fibrosis”.

**Q.** Which Survival ([2]; stroke-prone spontaneously hypertensive rats (FIG. 37)) does the source give for `COC(=O)[C@@H]1CC2=CC(=O)CC[C@]2(C)[C@@]23O[C@@H]2C[C@@]2(C)[C@@H](CC[C@@]24CCC(=O)O4)[C@H]13` [eplerenone] here?
**A.** The Survival was “increased survival”.

**Q.** And the Cerebral injury ([2]; stroke-prone spontaneously hypertensive rats (FIGS. 37, 38))?
**A.** Its Cerebral injury is “reduced cerebral injury; also recorded: decrease in cerebral injury”.
